Several values for one entry are separate records, joined by “and”; a condition that tells them apart may be missing. Identical values can stand only once.
What was measured:
Test in all cases: Kinase inhibition screen, cell-free 33P ATP assay at 10 μM
Format in all cases: biochemical
[1] = target: T1, 140 purified human kinases (Homo sapiens, UniProt Q7L7X3)
T1 sequence (Q7L7X3 1-1001): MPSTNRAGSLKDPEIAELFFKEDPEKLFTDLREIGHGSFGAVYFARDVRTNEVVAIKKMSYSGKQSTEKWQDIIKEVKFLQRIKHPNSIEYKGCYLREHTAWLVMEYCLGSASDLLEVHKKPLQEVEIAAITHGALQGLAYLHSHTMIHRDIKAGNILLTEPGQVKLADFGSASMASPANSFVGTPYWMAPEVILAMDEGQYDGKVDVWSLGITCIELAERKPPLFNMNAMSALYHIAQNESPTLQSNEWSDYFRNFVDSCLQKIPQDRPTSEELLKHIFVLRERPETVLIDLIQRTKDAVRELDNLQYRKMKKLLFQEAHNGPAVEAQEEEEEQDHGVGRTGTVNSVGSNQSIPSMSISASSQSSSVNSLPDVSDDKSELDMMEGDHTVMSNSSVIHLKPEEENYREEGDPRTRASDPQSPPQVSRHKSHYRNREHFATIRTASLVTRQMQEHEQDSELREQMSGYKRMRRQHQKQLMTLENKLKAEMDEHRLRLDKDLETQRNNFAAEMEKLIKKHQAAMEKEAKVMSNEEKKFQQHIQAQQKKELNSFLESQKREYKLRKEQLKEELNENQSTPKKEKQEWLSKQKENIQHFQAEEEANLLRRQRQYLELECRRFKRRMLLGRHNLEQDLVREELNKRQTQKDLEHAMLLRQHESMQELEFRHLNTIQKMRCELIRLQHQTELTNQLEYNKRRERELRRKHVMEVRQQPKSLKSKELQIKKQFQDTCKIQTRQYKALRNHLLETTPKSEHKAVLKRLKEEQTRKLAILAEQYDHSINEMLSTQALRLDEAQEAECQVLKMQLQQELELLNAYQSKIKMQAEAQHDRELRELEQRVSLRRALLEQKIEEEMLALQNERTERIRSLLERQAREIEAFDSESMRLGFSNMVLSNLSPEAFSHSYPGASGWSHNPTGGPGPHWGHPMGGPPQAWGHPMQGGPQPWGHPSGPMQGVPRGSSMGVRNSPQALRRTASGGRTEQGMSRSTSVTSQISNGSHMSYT
How it was run: (§1)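 Each complex tested in duplicate at 10 μM; cell-free radiometric assay using ^33P ATP on purified enzymes. Hits mapped by HGNC symbol onto the kinome tree.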

[2] = target: 140 purified human kinases (Homo sapiens, UniProt P14616); conditions: IRR
Chain of 140 purified human kinases (Homo sapiens, UniProt P14616) (P14616 27-1297): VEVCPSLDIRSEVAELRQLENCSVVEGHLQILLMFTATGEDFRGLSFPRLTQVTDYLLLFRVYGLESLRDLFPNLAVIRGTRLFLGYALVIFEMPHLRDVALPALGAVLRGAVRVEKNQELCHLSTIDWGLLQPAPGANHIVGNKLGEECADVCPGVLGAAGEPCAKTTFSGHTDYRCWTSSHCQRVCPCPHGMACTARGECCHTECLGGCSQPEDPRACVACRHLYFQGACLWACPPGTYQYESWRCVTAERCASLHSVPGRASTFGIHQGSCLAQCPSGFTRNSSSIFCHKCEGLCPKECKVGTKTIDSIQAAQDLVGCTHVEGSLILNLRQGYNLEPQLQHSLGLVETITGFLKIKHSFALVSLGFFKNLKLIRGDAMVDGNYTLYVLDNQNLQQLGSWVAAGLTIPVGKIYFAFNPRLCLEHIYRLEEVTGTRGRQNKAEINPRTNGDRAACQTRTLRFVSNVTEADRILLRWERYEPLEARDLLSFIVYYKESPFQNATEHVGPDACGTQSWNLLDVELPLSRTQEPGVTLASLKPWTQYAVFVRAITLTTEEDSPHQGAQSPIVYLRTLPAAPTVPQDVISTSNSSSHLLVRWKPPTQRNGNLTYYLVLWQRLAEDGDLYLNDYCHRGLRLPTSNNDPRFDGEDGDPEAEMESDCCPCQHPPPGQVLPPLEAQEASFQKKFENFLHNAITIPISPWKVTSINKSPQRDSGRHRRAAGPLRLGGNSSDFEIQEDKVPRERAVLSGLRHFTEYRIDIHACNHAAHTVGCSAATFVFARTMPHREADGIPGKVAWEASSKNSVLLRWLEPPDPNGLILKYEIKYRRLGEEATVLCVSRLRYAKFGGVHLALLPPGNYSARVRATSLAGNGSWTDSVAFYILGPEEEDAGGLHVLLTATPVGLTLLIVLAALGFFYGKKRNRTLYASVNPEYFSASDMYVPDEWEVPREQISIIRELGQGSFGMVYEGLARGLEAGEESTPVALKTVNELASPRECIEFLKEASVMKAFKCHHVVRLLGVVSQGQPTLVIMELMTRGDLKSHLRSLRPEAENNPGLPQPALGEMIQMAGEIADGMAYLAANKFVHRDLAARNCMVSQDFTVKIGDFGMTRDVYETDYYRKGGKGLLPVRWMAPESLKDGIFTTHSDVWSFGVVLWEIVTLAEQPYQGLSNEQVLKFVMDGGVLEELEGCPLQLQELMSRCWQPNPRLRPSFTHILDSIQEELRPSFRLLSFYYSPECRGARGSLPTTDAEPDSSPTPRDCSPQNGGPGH
How it was run: as §1

[3] = target: T2, 140 purified human kinases (Homo sapiens, UniProt O60285)
T2 sequence (O60285 1-661): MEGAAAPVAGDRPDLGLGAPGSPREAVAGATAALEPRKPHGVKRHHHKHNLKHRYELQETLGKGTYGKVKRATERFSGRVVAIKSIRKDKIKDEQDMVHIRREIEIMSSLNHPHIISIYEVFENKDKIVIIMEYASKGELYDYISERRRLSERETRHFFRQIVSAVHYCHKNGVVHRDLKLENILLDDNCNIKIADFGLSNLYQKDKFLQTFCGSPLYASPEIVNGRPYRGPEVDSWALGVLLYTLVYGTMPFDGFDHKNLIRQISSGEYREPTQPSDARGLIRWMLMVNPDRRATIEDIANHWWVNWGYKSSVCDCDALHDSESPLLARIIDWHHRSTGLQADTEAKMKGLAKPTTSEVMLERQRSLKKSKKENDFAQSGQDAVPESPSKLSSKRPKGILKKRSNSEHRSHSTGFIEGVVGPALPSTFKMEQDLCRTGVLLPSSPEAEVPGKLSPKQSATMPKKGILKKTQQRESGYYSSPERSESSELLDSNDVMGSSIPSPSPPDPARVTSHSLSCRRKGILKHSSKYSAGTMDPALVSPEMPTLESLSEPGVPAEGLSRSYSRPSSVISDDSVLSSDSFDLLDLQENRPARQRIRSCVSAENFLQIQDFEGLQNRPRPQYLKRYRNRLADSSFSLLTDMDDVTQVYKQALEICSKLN
How it was run: as §1

For `[Cu+2].[Cu+2].[Cu+2].c1ccc(-c2csc(NCCN(CCNc3nc(-c4ccccn4)cs3)CCNc3nc(-c4ccccn4)cs3)n2)nc1.c1ccc(-c2csc(NCCN(CCNc3nc(-c4ccccn4)cs3)CCNc3nc(-c4ccccn4)cs3)n2)nc1` [[L2Cu3]6+], the “% Activation, Mean value” ([1]; TAO1) was 10%, the “% Inhibition Run 1” value ([1]; TAO1) was -6.6% and the “% Inhibition Run 2” value ([1]; TAO1) was -13.8%. The “% Inhibition, Mean” value ([1]; TAO1) was -10%, the mean % activity ([1]; TAO1) was 110% and the “% activity” value ([1]; TAO1, Run 1) was 106.6%. For the same compound, the “% activity” value ([1]; TAO1, Run 2) was 113.8%, the “% Activity Run 1” value ([1]; TAO1, 10 µM) was 106.60% and the “% Activity Run 2” value ([1]; TAO1, 10 µM) was 113.80%. The “% Inhibition Run 1” value [2] was 26.1%, the “% Inhibition Run 2” value [2] was 42.9% and the “% Inhibition, Mean” value [2] was 35%. The mean % activity [2] was 66%, the “% activity” value ([2]; Run 1) was 73.9% and the “% activity” value ([2]; Run 2) was 57.1%. The “% Inhibition Run 1” value ([3]; NUAK1) was 93.9%, the “% Inhibition Run 2” value ([3]; NUAK1) was 92.9% and the “% Inhibition, Mean” value ([3]; NUAK1) was 93%. The mean % activity ([3]; NUAK1) was 6.6%, the “% activity” value ([3]; NUAK1, Run 1) was 6.1% and the “% activity” value ([3]; NUAK1, Run 2) was 7.1%. The “% Activity inhibition Mean” value ([3]; NUAK1, 10 µM) was 93.4%, the “% Activity inhibition Run 1” value ([3]; NUAK1, 10 µM) was 93.9% and the “% Activity inhibition Run 2” value ([3]; NUAK1, 10 µM) was 92.9%. For the same compound, the “% Activity remaining Run 1” value ([3]; NUAK1, 10 µM) was 6.10% and the “% Activity remaining Run 2” value ([3]; NUAK1, 10 µM) was 7.10%.
`CC(=O)[O-].CC(=O)[O-].CC(=O)[O-].CC(=O)[O-].CC(=O)[O-].CC(=O)[O-].[Zn+2].[Zn+2].[Zn+2].c1ccc(-c2csc(NCCN(CCNc3nc(-c4ccccn4)cs3)CCNc3nc(-c4ccccn4)cs3)n2)nc1.c1ccc(-c2csc(NCCN(CCNc3nc(-c4ccccn4)cs3)CCNc3nc(-c4ccccn4)cs3)n2)nc1` [[L2Zn3]6+] was tested, and the “% Activation, Mean value” ([1]; TAO1) was 8%, the “% Inhibition, Mean” value ([1]; TAO1) was -8% and the mean % activity ([1]; TAO1) was 108%. For the same compound, the “% activity” value ([1]; TAO1, duplicate runs) was 93% and 122%, the “% Inhibition, Mean” value [2] was 6.6% and the “% Inhibition, Run 1 / Run 2” value [2] was 2.4% and 11%. For the same compound, the mean % activity [2] was 93%, the “% activity” value ([2]; duplicate runs) was 98% and 89% and the “% Inhibition, Mean” value ([3]; NUAK1) was 61%. The “% Inhibition, Run 1 / Run 2” value ([3]; NUAK1) was 64% and 59%, the mean % activity ([3]; NUAK1) was 39% and the “% activity” value ([3]; NUAK1, duplicate runs) was 36% and 41%.

From paper PMC8222254, “Self-assembly of an anion receptor with metal-dependent kinase inhibition and potent in vitro anti-cancer properties” (Nature Communications, 2021)
